Measurements reported in patent US20100204210A1, “METHOD FOR TREATING PULMONARY DISEASES USING RHO KINASE INHIBITOR COMPOUNDS” (priority 2008, published 2010).
Like-named read-outs stand apart in the source and are kept apart here.

Tests used:
rat tracheal rings [1] = assay: Relaxation of carbachol-precontracted rat tracheal rings with reduced responsiveness to beta adrenergic receptor agonist; conditions: for response of carbachol-precontracted trachea to beta adrenergic receptor agonist: 300 nM carbachol, 1 μM isoproterenol, 1 μM formoterol or 30 μM albuterol, FIG. 1A-C; for relaxation by second addition of beta agonist after the response to 3 μM formoterol has faded: second dose 3 μM formoterol or 100 μM albuterol
Method: Trachea were excised from male Sprague-Dawley rats, cleaned of connective tissue and cut into cylindrical segments of 2-3 mm length. Two stainless steel wires were guided through the lumen of the tracheal ring. One wire was fixed in the tissue bath and the other was connected to a force transducer via surgical silk. Preparations were mounted in 5 ml water-jacketed organ baths (Radnoti Glass Technology) filled with Krebs buffer (95 mM NaCl, 5 mM KCl, 2.6 mM CaCl2, 1.2 mM MgSO4, 24.9 mM NaHCO3, 1.2 mM KH2PO4, 10 mM glucose) maintained at 37° C. and gassed with 95% O2 and 5% CO2. Indomethacin (1 μM), a cyclooxygenase inhibitor, was added to the Krebs buffer and was present throughout the experiments. Contractile tensions were measured using an isometric force transducer (Grass Instruments) and signals were analyzed using specialized software (Chart v5.5, ADInstruments). The preparations were allowed to equilibrate at a resting tension of 0.3 to 0.5 gm prior to two challenges with 60 mM KCl to assess tissue viability. After washing, tissues were treated with 300 nM carbachol for 10 to 15 minutes to induce a contractile response. Tissues were then treated with isoproterenol, formoterol, or albuterol to induce a relaxant response. […] After 10 minutes of formoterol treatment, these tissues were treated with a second dose of formoterol or with albuterol. After an additional 10 minutes, tissues were treated with a Rho kinase inhibitor. Basal tension was subtracted from all values and data were reported as a percentage of the maximal carbachol-induced contraction. Four parameters were analyzed for quantitation of efficacies: i) the maximal relaxation induced by initial formoterol treatment, ii) the fade of the response to the initial formoterol treatment, iii) the maximal relaxation induced by the second addition of a beta adrenergic receptor agonist, and iv) the maximal relaxation induced by Rho kinase inhibitor.

rat tracheal rings [2] = assay: Relaxation of carbachol-precontracted rat tracheal rings pretreated with vehicle or pro-inflammatory cytokines IL-1β and TNF-α; conditions: 300 nM carbachol, read-out: IC50 for relaxant response
Method: Male Sprague-Dawley rats weighing 301-325 gm were sacrificed by asphyxiation in a CO2 chamber. Trachea were excised, cleaned of connective tissue and cut into cylindrical segments of 2-3 mm length. Tissues were treated for 18 hours at 37° C. in F12 media with penicillin-streptomycin and 0.1% BSA alone or with 10 ng/ml IL-1β and 100 ng/ml TNF-α. IL-1β and TNF-α are pro-inflammatory cytokines. Tissues were then washed free of cytokines with Krebs buffer. Contractile tensions were measured using an isometric force transducer (Grass Instruments) as described for Example 1 and signals were analyzed using specialized software (Chart v5.5, ADInstruments). Tissues were treated with 300 nM carbachol for 10 to 15 minutes to induce a contractile response. Beta adrenergic receptor agonist compounds, isoproterenol or albuterol, were added cumulatively to the bath every 2 to 3 minutes and reductions in tension were recorded. Alternatively, Rho kinase inhibitor compound was added cumulatively to the bath every 30 minutes and reductions in tension were recorded. Basal tension was subtracted from all values and data were reported as a percentage of the maximal carbachol-induced contraction. Data were fit to the Hill equation using GraphPad Prism v5 software.

[3] = Pulmonary function test (FEV1 after methacholine provocation) in human patients treated with formoterol; format: in vivo; conditions: formoterol group compared to the placebo group, after 2 weeks
Source text: Patients with asthma or COPD are randomized to albuterol or Rho kinase inhibitor compound test groups. After 2-weeks of run-in period, subjects are given a methacholine provocation test (MPT) to induce bronchoconstriction followed by treatment with increasing doses of albuterol or with increasing doses of Rho kinase inhibitor compound to induce bronchorelaxation to establish the subject's baseline response to albuterol or Rho kinase inhibitor compound. Subjects from both test groups are then randomized to inhaled formoterol twice daily or placebo for 2 weeks. At the end of the trial period, the albuterol test group subjects are again administered a methacholine provocation test to induce bronchoconstriction followed by treatment with increasing doses of albuterol. Similarly, the Rho kinase inhibitor compound test group subjects are again administered a methacholine provocation test to induce bronchoconstriction followed by treatment with increasing doses of Rho kinase inhibitor compound to induce bronchorelaxation. The change in FEV1 after albuterol inhalation or administration of Rho kinase inhibitor compound is measured.

[4] = cytokine-pretreated tissue (10 ng/ml IL-1β and 100 ng/ml TNF-α, 18 hours)

SMILES	response of carbachol-precontracted trachea to beta adrenergic receptor agonist (rat tracheal rings [1])	relaxation by second addition of beta agonist after the response to 3 μM formoterol has faded (rat tracheal rings [1])	IC50 (rat tracheal rings [2]; [4]) [nM]	IC50 (rat tracheal rings [2]; vehicle-pretreated tissue) [nM]	bronchodilator response as measured by FEV1 [3]	maximal relaxation induced by initial formoterol treatment (rat tracheal rings [1]; 3 μM formoterol, FIGS. 4-7)
CC(C)(C)NCC(O)c1ccc(O)c(CO)c1 (centres unmarked) [albuterol]	initial rapid and partial relaxation of the tissue followed by a slower fade of the response to a more contractile state	ineffective in relaxing the tracheal preparation	411	239	decrease in the bronchodilator response	
COc1ccc(CC(C)NCC(O)c2ccc(O)c(NC=O)c2)cc1 (centres unmarked) [formoterol]	initial rapid and partial relaxation of the tissue followed by a slower fade of the response to a more contractile state	ineffective in relaxing the tracheal preparation				approximately 30 % of the initial carbachol response
CC(C)NCC(O)c1ccc(O)c(O)c1 (centres unmarked) [isoproterenol]	initial rapid and partial relaxation of the tissue followed by a slower fade of the response to a more contractile state		71	33		
